Assay [1] addresses T1, Mitogen-activated protein kinase 14 (Homo sapiens, UniProt Q16539). Nature of the assay: Inhibitory concentration against p38 at a concentration of 1.0 uM.
The target in assay [2] is T1, Mitogen-activated protein kinase 14. Nature of the assay: Inhibitory activity against p38 at a concentration of 1.0 uM.
Assay [3] concerns the target T2, Mitogen-activated protein kinase 10 (Homo sapiens, UniProt P53779). As to the kind of experiment: Inhibitory activity against c-Jun N-terminal kinase 3 at a concentration of 1.0 uM.
Assay [4] deals with T2, Mitogen-activated protein kinase 10. As to the kind of experiment: Inhibitory concentration against c-Jun N-terminal kinase 3 at a concentration of 1.0 uM.

T1 sequence (Q16539 whole entry): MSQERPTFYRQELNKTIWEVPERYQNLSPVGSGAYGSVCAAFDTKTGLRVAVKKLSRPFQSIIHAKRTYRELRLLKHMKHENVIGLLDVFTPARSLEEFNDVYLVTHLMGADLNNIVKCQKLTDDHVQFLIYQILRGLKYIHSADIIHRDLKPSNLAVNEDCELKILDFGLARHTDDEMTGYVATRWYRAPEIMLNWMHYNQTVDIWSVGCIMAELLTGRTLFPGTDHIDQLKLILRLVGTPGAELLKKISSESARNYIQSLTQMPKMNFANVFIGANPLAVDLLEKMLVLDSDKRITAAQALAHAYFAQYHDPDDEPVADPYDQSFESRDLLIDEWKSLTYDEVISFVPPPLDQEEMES
T2 sequence (P53779 whole entry): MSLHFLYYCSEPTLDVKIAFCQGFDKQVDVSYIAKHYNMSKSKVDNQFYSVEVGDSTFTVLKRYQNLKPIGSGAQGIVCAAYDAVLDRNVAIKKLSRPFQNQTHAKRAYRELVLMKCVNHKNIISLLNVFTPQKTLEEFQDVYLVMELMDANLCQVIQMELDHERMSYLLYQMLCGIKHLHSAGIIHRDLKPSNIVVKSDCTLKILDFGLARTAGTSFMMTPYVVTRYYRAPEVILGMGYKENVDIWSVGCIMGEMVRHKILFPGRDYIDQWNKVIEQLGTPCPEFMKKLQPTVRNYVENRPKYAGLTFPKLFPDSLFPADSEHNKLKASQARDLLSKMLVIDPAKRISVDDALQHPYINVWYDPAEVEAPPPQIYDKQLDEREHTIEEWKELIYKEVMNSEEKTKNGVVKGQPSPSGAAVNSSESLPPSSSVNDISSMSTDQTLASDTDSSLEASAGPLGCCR

Take `[N-]=[N+]=Nc1cccc(-c2ncn(CCCNC(=O)c3ccc(I)cc3)c2-c2ccncc2)c1`: 46 nM corresponded to half-maximal inhibition in assay [1] (IC50). For the compound `COc1ccc(COC[C@@H]2CCc3nc(-c4ccc(F)cc4)c(-c4ccnc(N)n4)n32)cc1`, the IC50 – broadly, the concentration that inhibits the measured activity by half – in assay [2] came to 295 nM; in assay [3] it was 61.2 nM. On to `COc1ccc(COC[C@H]2CCc3nc(-c4ccc(F)cc4)c(-c4ccnc(N)n4)n32)cc1`, for which the results for the IC50 in assay [2] and in assay [3] were 116 nM and 270 nM, respectively.

Take `CCCNc1nccc(-c2c(-c3ccc(F)cc3)nc3n2[C@@H](COCc2ccc(OC)cc2)CC3)n1`: the IC50 in assay [2] worked out at 217 nM; in assay [3] it was 233 nM.

In turn, `O=C(NCCCn1cnc(-c2ccc(F)cc2)c1-c1ccncc1)c1ccccc1` showed an IC50 in assay [4] of 130 nM.

As to `CCCNc1nccc(-c2c(-c3ccc(F)cc3)nc3n2[C@@H](CO)CC3)n1`, the results for the IC50 in assay [2] and in assay [3] were 31 nM and 3 nM, respectively. Turning to `CCCNc1nccc(-c2c(-c3ccc(F)cc3)nc3n2[C@H](COCc2ccc(OC)cc2)CC3)n1`, the IC50 in assay [2] turned out to be 54 nM; in assay [3], 10.9 nM. On to `CCCNc1nccc(-c2c(-c3ccc(F)cc3)nc3n2[C@H](CO)CC3)n1`, for which the IC50 in assay [2] turned out to be 28 nM; in assay [3], 2.5 nM.
